Columns and labels:
Assay type in all cases: cell-based
[1] = tested on: UACC-62; assay: NCI DTP in-vitro dose response, Melanoma
[2] = tested on: SK-MEL-28; assay: NCI DTP in-vitro dose response, Melanoma
[3] = tested on: M14; assay: NCI DTP in-vitro dose response, Melanoma
[4] = tested on: SK-MEL-5; assay: NCI DTP in-vitro dose response, Melanoma
[5] = tested on: MALME-3M; assay: NCI DTP in-vitro dose response, Melanoma
[6] = tested on: UACC-257; assay: NCI DTP in-vitro dose response, Melanoma
[7] = tested on: LOX IMVI; assay: NCI DTP in-vitro dose response, Melanoma
[8] = tested on: TK-10; assay: NCI DTP in-vitro dose response, Renal Cancer
[9] = tested on: CAKI-1; assay: NCI DTP in-vitro dose response, Renal Cancer
[10] = tested on: 786-0; assay: NCI DTP in-vitro dose response, Renal Cancer
[11] = tested on: ACHN; assay: NCI DTP in-vitro dose response, Renal Cancer
[12] = tested on: SN12C; assay: NCI DTP in-vitro dose response, Renal Cancer
[13] = tested on: UO-31; assay: NCI DTP in-vitro dose response, Renal Cancer
[14] = tested on: A498; assay: NCI DTP in-vitro dose response, Renal Cancer

SMILES: CCc1nc2ccc3c(c2[nH]1)C(=O)c1ccccc1C3=O [TABLE 4-5]
- CC50 [1]: > 100 µM
- TGI [1]: >1.00E−4
- Percent Growth ([1]; Log10 Concentration −4.0): 26%
- Percent Growth ([1]; Log10 Concentration −5.0): 41%
- Percent Growth ([1]; Log10 Concentration −6.0): 85%
- Percent Growth ([1]; Log10 Concentration −7.0): 92%
- Percent Growth ([1]; Log10 Concentration −8.0): 83%
- GI50 ([1]; read-out: GI50): 6.18 µM
- CC50 [2]: > 100 µM
- TGI [2]: 6.36E−5
- Percent Growth ([2]; Log10 Concentration −4.0): −12%
- Percent Growth ([2]; Log10 Concentration −5.0): 48%
- Percent Growth ([2]; Log10 Concentration −6.0): 79%
- Percent Growth ([2]; Log10 Concentration −7.0): 84%
- Percent Growth ([2]; Log10 Concentration −8.0): 89%
- GI50 ([2]; read-out: GI50): 8.58 µM
- CC50 [3]: > 100 µM
- TGI [3]: >1.00E−4
- Percent Growth ([3]; Log10 Concentration −4.0): 25%
- Percent Growth ([3]; Log10 Concentration −5.0): 50%
- Percent Growth ([3]; Log10 Concentration −6.0): 78%
- Percent Growth ([3]; Log10 Concentration −7.0): 95%
- Percent Growth ([3]; Log10 Concentration −8.0): 88%
- GI50 ([3]; read-out: GI50): 10.2 µM
- CC50 [4]: > 100 µM
- TGI [4]: 8.36E−6
- Percent Growth ([4]; Log10 Concentration −4.0): −19%
- Percent Growth ([4]; Log10 Concentration −5.0): −5%
- Percent Growth ([4]; Log10 Concentration −6.0): 59%
- Percent Growth ([4]; Log10 Concentration −7.0): 42%
- Percent Growth ([4]; Log10 Concentration −8.0): 44%
- CC50 [5]: > 100 µM
- TGI [5]: 8.69E−5
- Percent Growth ([5]; Log10 Concentration −4.0): −2%
- Percent Growth ([5]; Log10 Concentration −5.0): 26%
- Percent Growth ([5]; Log10 Concentration −6.0): 83%
- Percent Growth ([5]; Log10 Concentration −7.0): 84%
- Percent Growth ([5]; Log10 Concentration −8.0): 87%
- GI50 ([5]; read-out: GI50): 3.75 µM
- CC50 [6]: > 100 µM
- TGI [6]: >1.00E−4
- Percent Growth ([6]; Log10 Concentration −4.0): 18%
- Percent Growth ([6]; Log10 Concentration −5.0): 66%
- Percent Growth ([6]; Log10 Concentration −6.0): 96%
- Percent Growth ([6]; Log10 Concentration −7.0): 84%
- Percent Growth ([6]; Log10 Concentration −8.0): 84%
- GI50 ([6]; read-out: GI50): 21.6 µM
- CC50 [7]: > 100 µM
- TGI [7]: >1.00E−4
- Percent Growth ([7]; Log10 Concentration −4.0): 10%
- Percent Growth ([7]; Log10 Concentration −5.0): 33%
- Percent Growth ([7]; Log10 Concentration −6.0): 83%
- Percent Growth ([7]; Log10 Concentration −7.0): 91%
- Percent Growth ([7]; Log10 Concentration −8.0): 101%
- GI50 ([7]; read-out: GI50): 4.61 µM

SMILES: CCc1nc2ccc3c(c2[nH]1)C(=O)c1ccccc1C3=O [TABLE 4-7]
- CC50 [8]: > 100 µM
- TGI [8]: >1.00E−4
- Percent Growth ([8]; Log10 Concentration −4.0): 3%
- Percent Growth ([8]; Log10 Concentration −5.0): 39%
- Percent Growth ([8]; Log10 Concentration −6.0): 75%
- Percent Growth ([8]; Log10 Concentration −7.0): 113%
- Percent Growth ([8]; Log10 Concentration −8.0): 95%
- GI50 ([8]; read-out: GI50): 4.88 µM
- CC50 [9]: > 100 µM
- TGI [9]: >1.00E−4
- Percent Growth ([9]; Log10 Concentration −4.0): 9%
- Percent Growth ([9]; Log10 Concentration −5.0): 20%
- Percent Growth ([9]; Log10 Concentration −6.0): 76%
- Percent Growth ([9]; Log10 Concentration −7.0): 91%
- Percent Growth ([9]; Log10 Concentration −8.0): 97%
- GI50 ([9]; read-out: GI50): 2.9 µM
- CC50 [10]: > 100 µM
- TGI [10]: >1.00E−4
- Percent Growth ([10]; Log10 Concentration −4.0): 38%
- Percent Growth ([10]; Log10 Concentration −5.0): 68%
- Percent Growth ([10]; Log10 Concentration −6.0): 95%
- Percent Growth ([10]; Log10 Concentration −7.0): 102%
- Percent Growth ([10]; Log10 Concentration −8.0): 104%
- GI50 ([10]; read-out: GI50): 40.2 µM
- CC50 [11]: > 100 µM
- TGI [11]: 5.46E−5
- Percent Growth ([11]; Log10 Concentration −4.0): −5%
- Percent Growth ([11]; Log10 Concentration −5.0): 14%
- Percent Growth ([11]; Log10 Concentration −6.0): 62%
- Percent Growth ([11]; Log10 Concentration −7.0): 85%
- Percent Growth ([11]; Log10 Concentration −8.0): 94%
- GI50 ([11]; read-out: GI50): 1.77 µM
- CC50 [12]: > 100 µM
- TGI [12]: >1.00E−4
- Percent Growth ([12]; Log10 Concentration −4.0): 18%
- Percent Growth ([12]; Log10 Concentration −5.0): 46%
- Percent Growth ([12]; Log10 Concentration −6.0): 74%
- Percent Growth ([12]; Log10 Concentration −7.0): 80%
- Percent Growth ([12]; Log10 Concentration −8.0): 74%
- GI50 ([12]; read-out: GI50): 7.05 µM
- CC50 [13]: > 100 µM
- TGI [13]: >1.00E−4
- Percent Growth ([13]; Log10 Concentration −5.0): 15%
- Percent Growth ([13]; Log10 Concentration −6.0): 67%
- Percent Growth ([13]; Log10 Concentration −7.0): 83%
- Percent Growth ([13]; Log10 Concentration −8.0): 88%
- GI50 ([13]; read-out: GI50): 2.12 µM
- CC50 [14]: > 100 µM
- TGI [14]: 4.27E−5
- Percent Growth ([14]; Log10 Concentration −4.0): −20%
- Percent Growth ([14]; Log10 Concentration −5.0): 34%
- Percent Growth ([14]; Log10 Concentration −6.0): 74%
- Percent Growth ([14]; Log10 Concentration −7.0): 97%
- Percent Growth ([14]; Log10 Concentration −8.0): 94%
- GI50 ([14]; read-out: GI50): 3.89 µM
